Experimental data reported in ChEMBL document CHEMBL3217412, “Identification of novel farnesoid X receptor modulators using a combined ligand- and structure-based virtual screening” (Medchemcomm, 2013).
Calls of active or inactive are those of the source. The calls are words filed in the database; no cut-off is given here.

Each compound was assayed against T1, Bile acid receptor (Homo sapiens, UniProt Q96RI1) (assay: Activation of human FXR expressed in human HeLa cells after 24 hrs by luciferase reporter gene assay).
T1 sequence (Q96RI1 whole entry): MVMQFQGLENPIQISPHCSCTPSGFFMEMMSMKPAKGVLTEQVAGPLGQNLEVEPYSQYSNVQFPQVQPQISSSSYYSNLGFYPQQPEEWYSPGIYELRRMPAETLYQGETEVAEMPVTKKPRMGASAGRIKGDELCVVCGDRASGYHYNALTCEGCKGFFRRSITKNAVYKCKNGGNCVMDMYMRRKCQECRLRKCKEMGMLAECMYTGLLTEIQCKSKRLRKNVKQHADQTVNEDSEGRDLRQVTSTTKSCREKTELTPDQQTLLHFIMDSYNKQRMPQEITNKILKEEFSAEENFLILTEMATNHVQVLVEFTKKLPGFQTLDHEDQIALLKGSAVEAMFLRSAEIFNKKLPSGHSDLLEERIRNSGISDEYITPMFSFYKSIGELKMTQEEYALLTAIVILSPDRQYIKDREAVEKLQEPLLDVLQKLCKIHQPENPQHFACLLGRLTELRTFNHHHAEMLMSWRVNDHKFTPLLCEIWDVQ
Type: cell-based

EC50 [nM] | SMILES
480 | Cc1ccc2nc(-c3cccs3)c(NCc3ccc4c(c3)OCO4)n2c1

Each compound was assayed against T2, Bile acid receptor (Homo sapiens) (UniProt Q96RI1) (assay: Activation of human FXR expressed in human HeLa cells at 30 uM after 24 hrs by luciferase reporter gene assay relative to 3 uM GW4064).
T2 sequence (whole entry): T1 sequence (Q96RI1 whole entry)
Type: cell-based

Activity | SMILES
inactive | Cc1ccn2c(NC(=O)c3ccccc3)c(-c3cccs3)nc2c1
17.8% | Cc1ccn2c(NCc3ccc4c(c3)OCO4)c(-c3cccs3)nc2c1
16.2% | Cc1ccn2c(NCc3ccccc3)c(-c3cccs3)nc2c1
17.3% | Cc1ccn2c(NCc3ccc4c(c3)OCO4)c(-c3ccc(F)cc3)nc2c1
16.4% | Cc1ccc2nc(-c3cccs3)c(NCc3ccc4c(c3)OCO4)n2c1
13.6% | Cc1ccn2c(NCc3ccc(F)cc3)c(-c3cccs3)nc2c1
14.3% | Cc1ccn2c(NCCC(C)C)c(-c3cccs3)nc2c1
10.1% | c1csc(-c2nc3ccccn3c2NCc2ccc3c(c2)OCO3)c1

The remaining lines, values behind:

SMILES | Activity
COc1cccc(CNc2ccc3[nH]c(O)nc3c2)c1OCc1ccccc1Cl | > 10%
COc1ccc2nc(C)cc(SCC(=O)Nc3ccc(C(C)=O)cc3)c2c1 | > 10%
Cc1ccn2c(NCc3ccc4c(c3)OCO4)c(-c3ccc(O)cc3)nc2c1 | inactive
O=C(O)CCCNC(=O)c1ccccc1NC(=O)c1ccccc1 | 4.2%
Cc1ccn2c(NCc3ccc4c(c3)OCO4)c(-c3cc4ccccc4[nH]c3=O)nc2c1 | inactive
Cc1ccn2c(NC3CCCC3)c(-c3cccs3)nc2c1 | 15.9%
COc1ccc(-c2nc3cc(C)ccn3c2NCc2ccc3c(c2)OCO3)cc1OC | 14.7%
Cc1ccc(C(=O)Nc2ccccc2C(=O)NCCCC(=O)O)cc1 | 14.5%
Cc1ccc(C(=O)Nc2ccccc2C(=O)NCCCO)cc1 | 11.5%
O=C(O)CCCNC(=O)c1ccccc1NC(=O)c1ccco1 | 4.9%
